Several values for one entry are separate records, joined by “and”; a condition that tells them apart may be missing. Equal values may be shown once. Read-outs that look alike come from different tables or passages of the source.
Experiments:
[1] = Tariquidar or elacridar concentrations in plasma and brain by LC/MS; format: in vivo; settings: rat; for concentration at 210 min / concentration at 180 min: intravenous
[2] = test system: P-gp at the blood-brain barrier; settings: humans, 2 mg/kg, plasma 490±203 ng/ml; cited from earlier work
[3] = biological target: T1, P-glycoprotein (P-gp) at the blood-brain barrier (Rattus norvegicus, UniProt Q6PSM0); settings: for DV (Logan) of VPM / DV of VPM (2T4K model) / K1 of VPM (2T4K model) / k2 of VPM (2T4K model) / k3 of VPM (2T4K model) / k4 of VPM (2T4K model): whole brain, PET 120 min after, mean±SD
T1 sequence (Q6PSM0 1-1272): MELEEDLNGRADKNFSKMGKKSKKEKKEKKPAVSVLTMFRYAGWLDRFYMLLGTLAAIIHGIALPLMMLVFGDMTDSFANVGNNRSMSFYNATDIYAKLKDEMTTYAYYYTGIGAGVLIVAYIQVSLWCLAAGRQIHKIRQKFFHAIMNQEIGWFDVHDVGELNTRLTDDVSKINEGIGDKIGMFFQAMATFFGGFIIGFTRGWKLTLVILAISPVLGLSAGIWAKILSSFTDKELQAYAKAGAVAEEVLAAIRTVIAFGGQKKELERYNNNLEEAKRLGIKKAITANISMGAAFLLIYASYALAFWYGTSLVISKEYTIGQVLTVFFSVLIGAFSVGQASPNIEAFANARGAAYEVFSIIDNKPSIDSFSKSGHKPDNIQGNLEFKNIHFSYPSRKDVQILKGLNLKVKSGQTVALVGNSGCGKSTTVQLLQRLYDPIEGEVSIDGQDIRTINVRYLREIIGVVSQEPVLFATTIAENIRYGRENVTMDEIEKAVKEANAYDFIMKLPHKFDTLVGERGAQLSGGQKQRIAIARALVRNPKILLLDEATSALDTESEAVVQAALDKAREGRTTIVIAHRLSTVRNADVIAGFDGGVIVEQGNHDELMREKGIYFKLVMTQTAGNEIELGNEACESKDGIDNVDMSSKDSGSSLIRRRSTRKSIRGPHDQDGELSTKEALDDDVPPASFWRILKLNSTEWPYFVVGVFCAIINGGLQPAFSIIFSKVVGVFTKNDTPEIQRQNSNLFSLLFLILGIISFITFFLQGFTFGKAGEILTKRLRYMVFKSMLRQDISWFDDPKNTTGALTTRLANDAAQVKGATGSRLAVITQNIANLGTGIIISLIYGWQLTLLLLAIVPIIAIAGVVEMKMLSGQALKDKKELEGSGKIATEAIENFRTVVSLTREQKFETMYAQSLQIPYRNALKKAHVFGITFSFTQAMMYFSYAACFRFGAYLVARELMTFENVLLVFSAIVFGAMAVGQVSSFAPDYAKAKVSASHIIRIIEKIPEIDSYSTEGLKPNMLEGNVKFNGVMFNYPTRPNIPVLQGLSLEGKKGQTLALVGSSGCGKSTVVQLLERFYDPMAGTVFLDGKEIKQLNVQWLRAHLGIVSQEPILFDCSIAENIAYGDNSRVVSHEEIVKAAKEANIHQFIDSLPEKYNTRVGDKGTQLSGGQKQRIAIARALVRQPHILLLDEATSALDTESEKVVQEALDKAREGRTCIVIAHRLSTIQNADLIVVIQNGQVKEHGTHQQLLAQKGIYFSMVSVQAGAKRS

[4] = humans, 2 mg/kg; cited from earlier work
[5] = biological target: T1, P-glycoprotein (P-gp) at the blood-brain barrier; settings: for Mean DV increase (of baseline DV): 3 mg/kg tariquidar; for DV (Logan) of VPM / DV of VPM (2T4K model) / K1 of VPM (2T4K model) / k2 of VPM (2T4K model) / k3 of VPM (2T4K model) / k4 of VPM (2T4K model): after 3 mg/kg tariquidar (scan 2, 120 min after), mean±SD, n=6
[6] = test system: multidrug resistance-associated proteins (MRPs), such as MRP1; settings: cited from earlier work
[7] = test system: P-gp at the blood-brain barrier; settings: 15 mg/kg, rats; cited from earlier work
[8] = biological target: T1, P-glycoprotein (P-gp) at the blood-brain barrier; assay: in vivo
[9] = test system: P-glycoprotein (P-gp) at the blood-brain barrier; format: in vivo, rat
[10] = Hill fit of whole-brain DV vs inhibitor dose

COc1cc2c(cc1OC)CN(CCc1ccc(NC(=O)c3cc(OC)c(OC)cc3NC(=O)c3cnc4ccccc4c3)cc1)CC2 [tariquidar, Tariquidar dimesylate]
concentration at 210 min ([1]; brain, 3 mg/kg): 457 ± 37 ng/mL | concentration at 180 min ([1]; brain, 15 mg/kg): 6450 ± 3600 ng/mL | Kp at […] ([1]; brain, iv, 3 mg/kg): 1 ± 0.3 | Kp at 3 h ([1]; brain, iv, 15 mg/kg): 1.7 ± 0.9 | concentration at 210 min ([1]; plasma, 3 mg/kg): 503 ± 139 ng/mL | concentration at 180 min ([1]; plasma, 15 mg/kg): 4000 ± 390 ng/mL | Increase of brain DVs of VPM [2]: 1.24 fold | DVmax (maximum effect) [3, 10]: 11.9±0.5 ml·ml^−1 | Hill factor n [3, 10]: 3.0±0.6 | Dose leading to complete inhibition of P-gp ([3]; according to dose-response assessment (Fig. 2)): above 6 mg/kg | Maximum increase in VPM brain distribution (DV) over baseline ([3]; at maximum effective doses, rat brain): up to 11 fold | Whole-brain DV increase (factor) as compared to baseline scans ([3]; inhibitor 3.75 mg/kg): 7.0±1.1 | Whole-brain DV increase (factor) as compared to baseline scans ([3]; inhibitor 7.5 mg/kg): 10.1±0.8 | Whole-brain DV increase (factor) as compared to baseline scans ([3]; inhibitor 15 mg/kg): 9.9±1.8 | Whole-brain DV increase (factor) as compared to baseline scans ([3]; inhibitor 30 mg/kg): 10.2±0.3 | Increase of brain DVs at the half-maximum effect plasma concentration ([3]; rat, in vivo): approximately 4 fold | DV (Logan) of VPM ([3]; inhibitor 3.75 mg/kg i.v.): 8.80±1.06 (0.9) ml·ml^−1 | DV of VPM (2T4K model) ([3]; inhibitor 3.75 mg/kg i.v.): 8.92±1.11 (2.3) ml·ml^−1 | K1 of VPM (2T4K model) ([3]; inhibitor 3.75 mg/kg i.v.): 0.81±0.16 (13.9) ml·ml^−1·min^−1 | k2 of VPM (2T4K model) ([3]; inhibitor 3.75 mg/kg i.v.): 0.18±0.05 (50.3) min^−1 | k3 of VPM (2T4K model) ([3]; inhibitor 3.75 mg/kg i.v.): 0.20±0.02 (101.3) min^−1 | k4 of VPM (2T4K model) ([3]; inhibitor 3.75 mg/kg i.v.): 0.22±0.07 (51.4) min^−1 | DV (Logan) of VPM ([3]; inhibitor 7.5 mg/kg i.v.): 12.66±0.77 (0.9) ml·ml^−1 | DV of VPM (2T4K model) ([3]; inhibitor 7.5 mg/kg i.v.): 12.93±0.79 (1.7) ml·ml^−1 | K1 of VPM (2T4K model) ([3]; inhibitor 7.5 mg/kg i.v.): 1.27±0.24 (17.4) ml·ml^−1·min^−1 | k2 of VPM (2T4K model) ([3]; inhibitor 7.5 mg/kg i.v.): 0.31±0.12 (82.5) min^−1 | k3 of VPM (2T4K model) ([3]; inhibitor 7.5 mg/kg i.v.): 0.37±0.10 (97.3) min^−1 | k4 of VPM (2T4K model) ([3]; inhibitor 7.5 mg/kg i.v.): 0.18±0.01 (23.9) min^−1 | DV (Logan) of VPM ([3]; inhibitor 15 mg/kg i.v.): 12.35±1.79 (1.4) ml·ml^−1 | DV of VPM (2T4K model) ([3]; inhibitor 15 mg/kg i.v.): 12.72±1.83 (1.8) ml·ml^−1 | K1 of VPM (2T4K model) ([3]; inhibitor 15 mg/kg i.v.): 1.02±0.02 (15.0) ml·ml^−1·min^−1 | k2 of VPM (2T4K model) ([3]; inhibitor 15 mg/kg i.v.): 0.43±0.16 (50.3) min^−1 | k3 of VPM (2T4K model) ([3]; inhibitor 15 mg/kg i.v.): 0.48±0.04 (39.2) min^−1 | k4 of VPM (2T4K model) ([3]; inhibitor 15 mg/kg i.v.): 0.12±0.02 (20.4) min^−1 | DV (Logan) of VPM ([3]; inhibitor 30 mg/kg i.v.): 12.76±0.04 (0.7) ml·ml^−1 | DV of VPM (2T4K model) ([3]; inhibitor 30 mg/kg i.v.): 13.11±0.22 (2.1) ml·ml^−1 | K1 of VPM (2T4K model) ([3]; inhibitor 30 mg/kg i.v.): 1.22±0.23 (11.2) ml·ml^−1·min^−1 | k2 of VPM (2T4K model) ([3]; inhibitor 30 mg/kg i.v.): 0.30±0.04 (54.6) min^−1 | k3 of VPM (2T4K model) ([3]; inhibitor 30 mg/kg i.v.): 0.38±0.18 (59.4) min^−1 | k4 of VPM (2T4K model) ([3]; inhibitor 30 mg/kg i.v.): 0.17±0.09 (19.8) min^−1 | Plasma concentration at the time of the PET scan [4]: 490 ± 203 ng/mL | Mean DV increase (of baseline DV) ([5]; cerebellum): 2.8±0.7 | DV (Logan) of VPM ([5]; cerebellum): 6.07±0.52 (0.9) ml·ml^−1 | DV of VPM (2T4K model) ([5]; cerebellum): 6.14 ml·ml^−1 and 6.14±0.54 (2.9) ml·ml^−1 | K1 of VPM (2T4K model) ([5]; cerebellum): 0.73±0.14 (11.7) ml·ml^−1·min^−1 | k2 of VPM (2T4K model) ([5]; cerebellum): 0.32±0.13 (46.6) min^−1 | k3 of VPM (2T4K model) ([5]; cerebellum): 0.30±0.08 (75.2) min^−1 | k4 of VPM (2T4K model) ([5]; cerebellum): 0.20±0.05 (26.4) min^−1 | Mean DV increase (of baseline DV) ([5]; corpus striatum): 5.9±1.1 | DV (Logan) of VPM ([5]; corpus striatum): 8.70±1.05 (0.6) ml·ml^−1 | DV of VPM (2T4K model) ([5]; corpus striatum): 8.89±1.08 (2.7) ml·ml^−1 | K1 of VPM (2T4K model) ([5]; corpus striatum): 0.79±0.13 (10.5) ml·ml^−1·min^−1 | k2 of VPM (2T4K model) ([5]; corpus striatum): 0.28±0.08 (46.6) min^−1 | k3 of VPM (2T4K model) ([5]; corpus striatum): 0.47±0.22 (53.4) min^−1 | k4 of VPM (2T4K model) ([5]; corpus striatum): 0.22±0.06 (23.1) min^−1 | Mean DV increase (of baseline DV) ([5]; entorhinal cortex): 3.0±1.4 | DV (Logan) of VPM ([5]; entorhinal cortex): 6.09±1.37 (1.1) ml·ml^−1 | DV of VPM (2T4K model) ([5]; entorhinal cortex): 6.20±1.40 (3.4) ml·ml^−1 | K1 of VPM (2T4K model) ([5]; entorhinal cortex): 0.64±0.17 (12.9) ml·ml^−1·min^−1 | k2 of VPM (2T4K model) ([5]; entorhinal cortex): 0.37±0.14 (57.5) min^−1 | k3 of VPM (2T4K model) ([5]; entorhinal cortex): 0.34±0.10 (68.9) min^−1 | k4 of VPM (2T4K model) ([5]; entorhinal cortex): 0.15±0.05 (22.5) min^−1 | Mean DV increase (of baseline DV) ([5]; frontal motor cortex): 3.1±1.1 | DV (Logan) of VPM ([5]; frontal motor cortex): 7.14±0.80 (0.9) ml·ml^−1 | DV of VPM (2T4K model) ([5]; frontal motor cortex): 7.33±0.82 (1.7) ml·ml^−1 | K1 of VPM (2T4K model) ([5]; frontal motor cortex): 0.63±0.08 (9.5) ml·ml^−1·min^−1 | k2 of VPM (2T4K model) ([5]; frontal motor cortex): 0.24±0.05 (49.6) min^−1 | k3 of VPM (2T4K model) ([5]; frontal motor cortex): 0.32±0.09 (68.7) min^−1 | k4 of VPM (2T4K model) ([5]; frontal motor cortex): 0.19±0.06 (23.8) min^−1 | Mean DV increase (of baseline DV) ([5]; hippocampus): 6.4±0.9 | DV (Logan) of VPM ([5]; hippocampus): 8.01±0.88 (0.9) ml·ml^−1 | DV of VPM (2T4K model) ([5]; hippocampus): 8.17±0.91 (2.2) ml·ml^−1 | K1 of VPM (2T4K model) ([5]; hippocampus): 0.75±0.11 (11.1) ml·ml^−1·min^−1 | k2 of VPM (2T4K model) ([5]; hippocampus): 0.32±0.08 (57.9) min^−1 | k3 of VPM (2T4K model) ([5]; hippocampus): 0.43±0.09 (69.4) min^−1 | k4 of VPM (2T4K model) ([5]; hippocampus): 0.18±0.05 (23.8) min^−1 | Mean DV increase (of baseline DV) ([5]; thalamus): 7.1±1.1 | DV (Logan) of VPM ([5]; thalamus): 9.45±1.03 (0.6) ml·ml^−1 | DV of VPM (2T4K model) ([5]; thalamus): 9.64 ml·ml^−1 and 9.64±1.06 (2.0) ml·ml^−1 | K1 of VPM (2T4K model) ([5]; thalamus): 0.93±0.12 (9.0) ml·ml^−1·min^−1 | k2 of VPM (2T4K model) ([5]; thalamus): 0.33±0.18 (48.8) min^−1 | k3 of VPM (2T4K model) ([5]; thalamus): 0.47±0.11 (64.4) min^−1 | k4 of VPM (2T4K model) ([5]; thalamus): 0.23±0.06 (23.6) min^−1 | Inhibition of MRPs, such as MRP1 [6]: do not inhibit | DV increase of VPM following tariquidar [7]: approximately 12 fold | EC50 at 180 min [8]: 0.545 ± 0.0299 µg/mL | ED50 at 120 min ([8]; Sprague-Dawley, iv): 3 ± 0.2 mg/kg | Reversibility of the effect on brain TACs ([9]; 15 mg/kg, decline of TACs after peak uptake): at least partially reversible | Time of peak VPM brain uptake (maximum effect) after inhibitor injection ([9]; tariquidar 15 mg/kg or elacridar 5 mg/kg at 60 min after radiotracer injection): 30 ± 5 min and 30 min

Source: article PMC3690672 (European journal of nuclear medicine and molecular imaging, 2009)
